Source: patent publication US20230381774A1, “MICROFLUDIC LAB-ON-CHIP DEVICE, MATRIX, SMALL MOLECULES AND THREE-DIMENSIONAL SPHEROIDS FOR CELL REPROGRAMMING” (The Regents of the University of California, priority 2022, published 2023)
Entries after “also recorded” stand apart in the source; their conditions may differ.

Key:
Format in all cases: cell-based, mouse
iN cells = assay: Immunostaining of mature neuronal markers in iN cells; details: iN cells derived in presence of inhibitor
Procedure: For immunostaining, cells were fixed with 4% paraformaldehyde (Electron Microscopy Sciences), permeabilized with 0.5% Triton-X-100 (Sigma), and blocked with 5% donkey serum (Jackson Immunoresearch) in phosphate buffered saline (PBS). For actin-cytoskeleton staining, samples were incubated with fluorescein isothiocyanate-conjugated phalloidin (Invitrogen) for 1 hour. Primary antibodies were incubated for 1 hour at room temperature or overnight at 4° C., followed by 1-hour incubation with Alexa 488 and/or Alexa 546-labeled secondary antibodies (Molecular Probes). Nuclei were stained with 4,6-diamino-2-phenylindole (DAPI) (Invitrogen).

[1] = system: H3K4-specific histone demethylase (HDM); assay: H3K4 HDM activity assay on nuclear extracts of treated fibroblasts; details: 10 μM blebbistatin or 5 μM PF573228, 2 hours, vs DMSO
Procedure: (§1) Nuclear protein extractions were isolated from 5×10^5 fibroblasts treated with vehicle control (DMSO), 10 μM blebbistatin or 5 μM PF573228 for 2 hours using a nuclear extraction kit (EpiGentek, OP-0002), in accordance with the manufacturer's instructions. HAT, HDAC, H3K4 HMT, H3K4 HDM and DNMT activity were measured using the HAT activity/inhibition assay (EpiGentek, P-4003-048), HDAC activity/inhibition assay (EpiGentek, P-4034-096), Histone methyltransferase (H3K4 specific) activity/inhibition assay (EpiGentek, P-3002-1), Histone Demethylase (H3K4 specific) activity/inhibition assay (EpiGentek, P-3074-48), and DNMT activity/inhibition assay (EpiGentek, P-3009-048), respectively. Per the manufacturer's instructions, 20 μg of nuclear extract was added into the assay wells and incubated at 37° C. for 90 minutes. After adding the color developer solution, the absorbance was measured using a plate reader (Infinite […], 30050303) at 450 nm for all the assays with the exception of the Histone Demethylase (H3K4 specific) activity/inhibition assay where we measured the fluorescence using a fluorescence microplate reader at 530 EX/590 EM nm.

[2] = system: DNA methyltransferase (DNMT); assay: DNMT activity assay on nuclear extracts of treated fibroblasts; details: 10 μM blebbistatin or 5 μM PF573228, 2 hours, vs DMSO
Procedure: as §1

[3] = system: promoter or enhancer regions of neuronal and mesenchymal genes; assay: ATAC-seq chromatin accessibility; details: 10 μM blebbistatin or 5 μM PF573228, 2 hours
Procedure: A total of 1,000,000 fibroblasts treated with vehicle control (DMSO), 10 μM blebbistatin or 5 μM PF573228 were collected after 2 hours and stored at −80° C. prior to sample processing. ATAC-seq was performed as described previously^47. In brief, frozen cells were thawed and washed once with PBS and then resuspended in 500 μL of cold PBS. The cell number was assessed by Cellometer Auto 2000 (Nexcelom Bioscience, Massachusetts, USA). 100,000 cells were then added to ATAC lysis buffer and centrifuged at 500 g in a pre-chilled centrifuge for 5 minutes. Supernatant was removed and the nuclei were resuspended in 50 μL of tagmentation reaction mix by pipetting up and down. The reactions were incubated at 37° C. for 30 minutes in a thermomixer with shaking at 1,000 r.p.m., and then cleaned up using the MiniElute reaction clean up kit (Qiagen). Tagmented DNA was amplified with barcoded primers. Library quality and quantity were assessed with Qubit 2.0 DNA HS Assay (ThermoFisher), Tapestation High Sensitivity D1000 Assay (Agilent Technologies), and QuantStudio® 5 System (Applied Biosystems). Equimolar pooling of libraries was performed based on QC values and sequenced on an Illumina® NovaSeq (Illumina, California, USA) with a read length configuration of 150 PE for [100]M PE reads (50M in each direction) per sample.
FASTQ files were trimmed with Trim Galore and cutadapt^48. Pair-ended reads were then aligned to the mouse reference genome (mm10) with Bowtie2^49. Mitochondrial reads and PCR duplicates were removed using SAMtools^50 and Picard (http://broadinstitute.github.io/picard/), respectively. Peaks were called over input using MACS3^51, and only peaks outside the ENCODE blacklist region were kept. All peaks from all samples were merged and featureCount^52 was used to count the mapped reads for each sample.

| SMILES | mature neuronal marker expression of derived iN cells (iN cells) | H3K4-specific HDM activity [1] | DNMT activity [2] | chromatin accessibility of mesenchymal genes [3] | chromatin accessibility of neuronal genes (Ascl1, Brn2, Myt1l, Tubb3) [3] |
| --- | --- | --- | --- | --- | --- |
| CS(=O)(=O)c1cccc(CNc2nc(Nc3ccc4c(c3)CCC(=O)N4)ncc2C(F)(F)F)c1 [PF573228] | expressed neuronal markers, including NeuN, MAP2, and synapsin; also recorded: displaying a typical neuronal morphology and co-expressing mature neuronal markers, NeuN, MAP2 and synapsin | differences | a reduction in 5-mC marks and DNMT activity | slightly decrease the accessibility of mesenchymal genes | could increase the accessibility at the promoter or enhancer regions of neuronal genes |
| Cc1ccc2c(c1)C(=O)C1(O)CCN(c3ccccc3)C1=N2 (stereo not shown) [blebbistatin] | expressed NeuN, microtubule-associated protein 2 (MAP2), and synapsin | reduced | a decrease in DNA methyltransferase (DNMT) activity | slightly decreased the accessibility at the promoters or enhancer regions of some mesenchymal genes | could increase the accessibility at the promoter or enhancer regions of neuronal genes |
